The values below come from patent publication US20090325862A1, “Histone Deacetylase Inhibitors for the Treatment of Neurodegeneration” (priority 2006, published 2009).

The IC50 is the concentration needed to halve the response being measured.

The structures appear in SMILES notation. Read-outs that look alike come from different tables or passages of the source. Some results are limits rather than exact numbers.

Series [1] addresses HDAC4 (Homo sapiens, UniProt P56524). The series is described as follows: cell-free, isoform selective HDAC enzyme assay, HDAC4. It counts as biochemical. The following applies: HDAC Class IIa; read-out: IC50 Inhibition, HDAC4.
The target in series [2] is T1, recombinant human HDAC1 enzyme (Homo sapiens, UniProt Q13547).
T1 construct: made in house; host or cells: mammalian cells
Description: HDAC1 assay (Fluor-de-Lys fluorescence). It counts as biochemical. The following applies: HDAC Class I; read-out: IC50 Inhibition, HDAC1. The method, then: (§1) The final concentration in the assay is 20 μM.
The HDAC1 enzyme is diluted in assay buffer prior to each use from a fresh aliquot of enzyme.
(§2) The final concentration in the assay is 1-2 nM.

For series [3], the target named is T2, HDAC6 (Homo sapiens, UniProt Q9UBN7).
T2 sequence (Q9UBN7 1-1215): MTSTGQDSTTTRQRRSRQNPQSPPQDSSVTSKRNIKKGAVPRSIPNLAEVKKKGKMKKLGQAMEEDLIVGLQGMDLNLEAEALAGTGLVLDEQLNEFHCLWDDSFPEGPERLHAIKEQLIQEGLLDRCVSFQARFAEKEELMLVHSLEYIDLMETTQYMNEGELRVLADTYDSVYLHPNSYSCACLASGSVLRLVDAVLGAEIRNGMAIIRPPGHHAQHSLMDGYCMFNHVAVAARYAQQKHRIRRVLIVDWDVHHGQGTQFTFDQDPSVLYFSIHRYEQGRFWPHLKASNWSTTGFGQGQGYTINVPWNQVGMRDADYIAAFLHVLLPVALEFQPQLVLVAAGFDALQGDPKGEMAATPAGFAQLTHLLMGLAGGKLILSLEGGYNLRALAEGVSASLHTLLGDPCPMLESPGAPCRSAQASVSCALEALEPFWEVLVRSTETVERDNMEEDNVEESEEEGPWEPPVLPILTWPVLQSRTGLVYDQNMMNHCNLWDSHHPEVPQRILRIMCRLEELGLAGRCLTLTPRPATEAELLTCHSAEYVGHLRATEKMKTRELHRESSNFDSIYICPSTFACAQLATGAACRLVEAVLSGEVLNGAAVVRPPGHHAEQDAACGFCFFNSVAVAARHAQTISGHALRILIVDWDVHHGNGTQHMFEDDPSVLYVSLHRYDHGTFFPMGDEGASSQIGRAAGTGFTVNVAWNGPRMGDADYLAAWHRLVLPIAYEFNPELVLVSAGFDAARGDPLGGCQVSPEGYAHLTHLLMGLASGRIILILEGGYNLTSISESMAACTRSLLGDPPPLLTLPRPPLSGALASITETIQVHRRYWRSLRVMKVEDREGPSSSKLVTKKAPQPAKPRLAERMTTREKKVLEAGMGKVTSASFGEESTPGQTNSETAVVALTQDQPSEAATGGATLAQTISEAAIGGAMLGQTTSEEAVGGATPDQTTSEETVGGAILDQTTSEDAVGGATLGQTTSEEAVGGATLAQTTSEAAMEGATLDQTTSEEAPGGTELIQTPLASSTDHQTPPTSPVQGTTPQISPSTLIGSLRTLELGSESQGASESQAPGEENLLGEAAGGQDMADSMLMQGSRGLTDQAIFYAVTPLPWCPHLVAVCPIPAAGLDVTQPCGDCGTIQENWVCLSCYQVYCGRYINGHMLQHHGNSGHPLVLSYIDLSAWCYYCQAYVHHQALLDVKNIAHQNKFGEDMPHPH
Description: cell-free, isoform selective HDAC enzyme assay, HDAC6. It counts as biochemical.

For series [4], the target named is T3, human HDAC8 enzyme (Homo sapiens, UniProt Q9BY41).
T3 construct: full length (starting from amino acid 1 to 377+ linker IEGRGS+6 His); made in house; host or cells: E. coli BL21 codon plus
T3 sequence (Q9BY41 1-377): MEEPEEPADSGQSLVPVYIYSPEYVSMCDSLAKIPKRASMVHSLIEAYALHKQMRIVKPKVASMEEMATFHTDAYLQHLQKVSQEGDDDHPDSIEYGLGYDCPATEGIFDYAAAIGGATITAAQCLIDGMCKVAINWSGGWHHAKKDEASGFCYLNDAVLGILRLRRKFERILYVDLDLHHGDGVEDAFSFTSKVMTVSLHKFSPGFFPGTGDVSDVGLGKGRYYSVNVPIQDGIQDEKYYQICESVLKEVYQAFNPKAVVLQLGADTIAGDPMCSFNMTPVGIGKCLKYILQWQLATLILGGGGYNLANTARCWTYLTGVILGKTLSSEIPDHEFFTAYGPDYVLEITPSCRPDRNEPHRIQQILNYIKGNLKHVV
The series is described as follows: HDAC8 assay (Fluor-de-Lys-HDAC8 fluorescence). It counts as biochemical.
Description: The HDAC8 assay is used to measure inhibitory activity of compounds against the human HDAC8 enzyme. The assay may be performed in 96 well or 384 well microtiter plates by pre-incubating serial dilutions of compounds with a fixed concentration of HDAC8 enzyme and then adding a diacetylated peptide-containing substrate/developer that fluoresces upon deacetylation. The deacetylase reaction is performed at 37° C. for 60 min and stopped by addition of the developer solution.
Reagents of the HDAC Fluorescent Activity Assay are purchased from BioMol Research Laboratories (Plymouth Meeting, Pa.), and include the Fluor-de-Lys™-HDAC8 Substrate/DeveloperII System. The reagents include the fluorescent substrate as a 5 mM stock solution, the and the DeveloperII Concentrate.
TSA is provided as a 10 mM stock solution in 100% DMSO.
The final concentration in the assay is 70 μM.
Test compounds are prepared as a 10×5% DMSO solution in distilled water. The final DMSO concentration in the reaction is 0.5%.
The experiment is performed in a 96-well microplate (Matrix Screenmates white), 50 ul volume, according to the following steps:
1) Add 5 ul of DMSO/compound solution
2) Add 40 ul of HDAC8 enzyme in assay buffer
4) Start the reaction by adding 5 ul of the 1 mM Substrate Solution
5) Incubate 1 h at 37° C. […]
8) Measure the fluorescence at Ex.360 nM and Em.460 nM […]

For series [5], the target named is T4, recombinant human HDAC3 enzyme (HDAC3(DAD) enzyme complex) (Homo sapiens, UniProt O15379).
T4 construct: made in house; host or cells: mammalian cells
The series is described as follows: HDAC3 assay (Fluor-de-Lys fluorescence). It counts as biochemical. The following applies: HDAC Class I; read-out: IC50 Inhibition, HDAC3. The method, then:
as §1, §2

Series [6] has as its target T5, SIRT1 (Homo sapiens, UniProt Q96EB6).
T5 sequence (Q96EB6 1-747): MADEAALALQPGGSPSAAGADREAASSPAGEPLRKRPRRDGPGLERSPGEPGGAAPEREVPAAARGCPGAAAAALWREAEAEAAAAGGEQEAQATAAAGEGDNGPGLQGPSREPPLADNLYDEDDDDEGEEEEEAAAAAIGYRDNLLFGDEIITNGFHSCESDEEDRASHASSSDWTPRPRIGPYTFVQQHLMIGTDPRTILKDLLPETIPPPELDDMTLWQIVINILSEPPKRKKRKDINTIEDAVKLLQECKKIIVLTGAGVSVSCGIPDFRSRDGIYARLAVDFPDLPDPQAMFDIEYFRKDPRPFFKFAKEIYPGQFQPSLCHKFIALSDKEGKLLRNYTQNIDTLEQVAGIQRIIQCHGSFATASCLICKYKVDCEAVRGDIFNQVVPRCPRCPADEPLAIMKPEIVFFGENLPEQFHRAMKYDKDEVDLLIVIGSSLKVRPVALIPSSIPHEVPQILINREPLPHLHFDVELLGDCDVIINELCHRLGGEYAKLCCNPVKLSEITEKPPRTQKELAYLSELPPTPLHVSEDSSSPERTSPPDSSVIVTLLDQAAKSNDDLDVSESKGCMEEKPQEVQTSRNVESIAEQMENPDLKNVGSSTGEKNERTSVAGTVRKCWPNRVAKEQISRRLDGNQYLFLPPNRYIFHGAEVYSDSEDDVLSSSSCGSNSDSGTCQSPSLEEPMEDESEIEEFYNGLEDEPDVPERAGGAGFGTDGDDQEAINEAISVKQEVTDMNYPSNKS
The series is described as follows: cell-free, isoform selective HDAC enzyme assay, SIRT1. It counts as biochemical. The following applies: HDAC Class III; read-out: IC50 Inhibition, SIRT1. On the procedure:
The following pharmaceutically active compounds, all of which are taught in the prior art, were assessed for the inhibition of various HDAC subtypes the preceding cell-free, isoform selective HDAC enzyme assays: […]

In series [7] the test system is acetylated histones in the brain. The following applies: see WO2003083067; cited from earlier work.

Chain of HDAC4 (P56524 whole entry, species assumed, canonical isoform): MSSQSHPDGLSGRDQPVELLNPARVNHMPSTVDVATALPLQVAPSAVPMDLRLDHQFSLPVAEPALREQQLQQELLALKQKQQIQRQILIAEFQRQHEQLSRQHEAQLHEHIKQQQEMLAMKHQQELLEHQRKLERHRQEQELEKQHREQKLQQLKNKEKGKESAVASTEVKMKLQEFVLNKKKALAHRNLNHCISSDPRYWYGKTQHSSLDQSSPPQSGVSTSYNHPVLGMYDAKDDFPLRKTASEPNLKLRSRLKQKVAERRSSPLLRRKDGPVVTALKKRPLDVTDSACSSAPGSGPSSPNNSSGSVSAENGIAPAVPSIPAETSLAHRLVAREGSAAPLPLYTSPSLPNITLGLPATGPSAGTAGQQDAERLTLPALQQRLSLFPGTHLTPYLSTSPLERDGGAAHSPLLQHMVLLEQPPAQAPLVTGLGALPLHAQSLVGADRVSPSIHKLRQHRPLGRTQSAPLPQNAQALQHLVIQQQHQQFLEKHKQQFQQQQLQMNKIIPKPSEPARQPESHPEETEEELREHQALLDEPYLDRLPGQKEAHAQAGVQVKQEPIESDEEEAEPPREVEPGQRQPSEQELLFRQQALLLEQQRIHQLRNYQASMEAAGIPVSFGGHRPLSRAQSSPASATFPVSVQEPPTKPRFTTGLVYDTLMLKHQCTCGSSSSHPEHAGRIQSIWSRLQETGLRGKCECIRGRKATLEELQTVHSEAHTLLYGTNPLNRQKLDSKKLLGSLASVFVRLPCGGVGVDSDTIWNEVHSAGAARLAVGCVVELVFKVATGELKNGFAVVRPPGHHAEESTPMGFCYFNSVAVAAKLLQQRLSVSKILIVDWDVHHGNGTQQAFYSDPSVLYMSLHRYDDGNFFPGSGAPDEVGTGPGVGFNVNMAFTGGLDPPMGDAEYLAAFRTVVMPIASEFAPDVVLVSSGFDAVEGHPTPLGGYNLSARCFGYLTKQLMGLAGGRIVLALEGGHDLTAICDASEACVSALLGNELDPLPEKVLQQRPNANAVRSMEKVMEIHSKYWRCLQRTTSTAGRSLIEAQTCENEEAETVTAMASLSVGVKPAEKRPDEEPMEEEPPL
T1 sequence (Q13547 whole entry): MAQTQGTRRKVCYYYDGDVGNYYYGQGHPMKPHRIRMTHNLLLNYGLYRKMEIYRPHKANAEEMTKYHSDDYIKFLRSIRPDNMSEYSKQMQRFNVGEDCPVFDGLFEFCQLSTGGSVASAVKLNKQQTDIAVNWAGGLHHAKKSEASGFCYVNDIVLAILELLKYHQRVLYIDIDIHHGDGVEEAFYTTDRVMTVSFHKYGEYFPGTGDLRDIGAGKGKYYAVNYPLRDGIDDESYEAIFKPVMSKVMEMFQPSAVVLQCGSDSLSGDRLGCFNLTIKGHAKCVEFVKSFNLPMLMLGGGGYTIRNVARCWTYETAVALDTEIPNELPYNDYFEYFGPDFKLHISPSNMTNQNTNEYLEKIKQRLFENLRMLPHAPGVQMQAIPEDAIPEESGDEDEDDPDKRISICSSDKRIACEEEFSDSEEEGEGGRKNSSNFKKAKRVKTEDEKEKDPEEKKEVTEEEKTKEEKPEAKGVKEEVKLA
T4 sequence (O15379 whole entry): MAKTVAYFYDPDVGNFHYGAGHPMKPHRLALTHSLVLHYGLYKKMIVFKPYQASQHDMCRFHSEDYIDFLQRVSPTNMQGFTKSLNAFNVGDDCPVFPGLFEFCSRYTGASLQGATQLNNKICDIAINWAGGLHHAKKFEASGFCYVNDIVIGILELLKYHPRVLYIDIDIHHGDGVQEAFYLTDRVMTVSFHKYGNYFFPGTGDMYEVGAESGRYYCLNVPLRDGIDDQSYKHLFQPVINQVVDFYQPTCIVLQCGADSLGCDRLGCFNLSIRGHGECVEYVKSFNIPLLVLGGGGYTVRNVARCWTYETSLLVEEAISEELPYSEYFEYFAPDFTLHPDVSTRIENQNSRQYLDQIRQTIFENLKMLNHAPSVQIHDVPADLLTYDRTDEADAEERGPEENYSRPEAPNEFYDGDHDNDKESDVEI
T4 sequence (Q9Y618 389-480 partner limits assumed): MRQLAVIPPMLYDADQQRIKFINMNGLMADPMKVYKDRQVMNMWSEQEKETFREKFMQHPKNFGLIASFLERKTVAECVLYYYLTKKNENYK

With `CCCCCC[C@@H](CCC)C(=O)O` [Arundic acid, (2R)-2-propyloctanoic acid], the 50% inhibitory concentration (IC50) in series [1] is more than 50 µM; in series [2], 10 µM; in series [3] (HDAC Class IIb, read-out: IC50 Inhibition, HDAC6) it was more than 50 µM; in series [4] (HDAC Class I, read-out: IC50 Inhibition, HDAC8), 31 µM; in series [5], 36 µM; in series [6] it was more than 50 µM. In addition, in series [4] (HDAC 8 potency similar to HDAC1 and HDAC3), the “potency at HDAC 8 relative to HDAC1 and HDAC3” value is listed as not above 5 fold.

With `O=C(CCCCCCC(=O)Nc1ccccc1)NO` [SAHA, suberoylanilide hydroxamic acid], in series [7], the “accumulation of acetylated histones in the brain” value was “cause accumulation of acetylated histones in the brain” and the “crossing of the blood-brain barrier” value is reported as “cross the blood-brain barrier”.

Take `CCCC(CCC)C(=O)O` [Valproic acid, 2-propylpentanoic acid]: the values for the half-inhibitory concentration (IC50) in series [1] and in series [3] were more than 25 µM and more than 5000 µM, respectively.
